Publication PMC6887723, “Design and Synthesis of 4-(Heterocyclic Substituted Amino)-1H-Pyrazole-3-Carboxamide Derivatives and Their Potent Activity against Acute Myeloid Leukemia (AML)” (International Journal of Molecular Sciences, 2019)

Columns and labels:
CDK2 = molecular target: T1, CDK2 (Homo sapiens, UniProt P24941); test: CDK2 kinase activity assay (Hot-Spot); assay type: biochemical; details: 10 μM ATP; mean ± SD, three independent experiments
T1 construct: purchased Reaction Biology Corp
Method: (§1) Activities of kinases were determined using Hot-SpotSM kinase assay which was performed by Reaction Biology Corp. (Malvern PA, USA) as described previously.

MV4-11 = test: Cell growth inhibition assay (CellTiter-Glo); assay type: cell-based; details: Homo sapiens, 72 h, highest test concentration 1 μM, mean ± SD, three independent experiments
Method: The human AML cell line MV4-11 was purchased from the American Type Culture Collection (ATCC) (Manassas, VA, USA). MV4-11 was cultured in IMDM media (Corning, Crown Bioscience Inc., Taicang, China) with 10% FBS and supplemented with 2% L-glutamine and 1% pen/strep. The MV4-11 cell line was maintained in culture media at 37 °C with 5% CO2. The effects of target compounds on MV4-11 proliferation was performed by Crown Bioscience Inc. Cells were grown in 96-well culture plates (10,000/well). The compounds of various concentrations were added into the plates. Cell proliferation was determined after treatment with compounds for 72 h. Cell viability was measured using the CellTiter-Glo assay (Promega, Crown Bioscience Inc., Taicang, China) according to the manufacturer’s instructions, and luminescence was measured in a multilabel reader (Envision2014, PerkinElmer, Crown Bioscience Inc., Taicang, China). Data were normalized to the control group (DMSO) and represented by the mean of three independent measurements with standard error of <20%. IC50 values were calculated using Prism 5.0 (GraphPad Software, San Diego, CA, USA).

[1] = system: phosphorylation of the retinoblastoma protein (Rb); test: Western blot, phosphorylation of Rb in MV4-11 cells; assay type: cell-based, human; details: MV4-11, 4 h; dose-dependent; at 1 μM comparable with AT-7519
Method: (§2) Analysis of pFLT3, pSTAT5, pERK, pAKT, and pRb in vitro: to determine the levels of pFLT3, pSTAT5, pERK, pAKT, and pRb, cells were seeded in a 6-well cell culture plate at a density of 400,000 cells per well for MV4-11 in a total volume of 1800 μL and incubated overnight in medium containing 10% fetal bovine serum (Life Technologies, Rockville, MD, USA). Then 200 μL of serially diluted compounds were added to each well the next day. Cell lysates were harvested after 4 h and pFLT3, pSTAT5, pERK, pAKT, or pRb were quantified using assay kits for FLT3/Phospho-FLT3Tyr589/591, pSTAT5 (Tyr694)/total STAT5, pRb (Ser807)/total Rb (Nanjin keyGen Biotech Company, Nanjing, China) following the manufacturer’s protocols.

CDK4 = molecular target: T2, CDK4 (Homo sapiens, UniProt P11802); test: CDK4 kinase activity assay (Hot-Spot); assay type: biochemical; details: 10 μM ATP; mean ± SD, three independent experiments
T2 construct: purchased Reaction Biology Corp
Method: as §1

[2] = system: phosphorylation of STAT5/AKT/ERK; test: Western blot, phosphorylation of STAT5/AKT/ERK in MV4-11 cells; assay type: cell-based, human; details: MV4-11, 4 h, 1 μM
Method: as §2

FLT3 = molecular target: T3, FLT3 (Homo sapiens, UniProt P36888); test: FLT3 kinase activity assay (Hot-Spot); assay type: biochemical; details: 10 μM ATP; mean ± SD, three independent experiments
T3 construct: purchased Reaction Biology Corp
T3 sequence (P36888 27-993): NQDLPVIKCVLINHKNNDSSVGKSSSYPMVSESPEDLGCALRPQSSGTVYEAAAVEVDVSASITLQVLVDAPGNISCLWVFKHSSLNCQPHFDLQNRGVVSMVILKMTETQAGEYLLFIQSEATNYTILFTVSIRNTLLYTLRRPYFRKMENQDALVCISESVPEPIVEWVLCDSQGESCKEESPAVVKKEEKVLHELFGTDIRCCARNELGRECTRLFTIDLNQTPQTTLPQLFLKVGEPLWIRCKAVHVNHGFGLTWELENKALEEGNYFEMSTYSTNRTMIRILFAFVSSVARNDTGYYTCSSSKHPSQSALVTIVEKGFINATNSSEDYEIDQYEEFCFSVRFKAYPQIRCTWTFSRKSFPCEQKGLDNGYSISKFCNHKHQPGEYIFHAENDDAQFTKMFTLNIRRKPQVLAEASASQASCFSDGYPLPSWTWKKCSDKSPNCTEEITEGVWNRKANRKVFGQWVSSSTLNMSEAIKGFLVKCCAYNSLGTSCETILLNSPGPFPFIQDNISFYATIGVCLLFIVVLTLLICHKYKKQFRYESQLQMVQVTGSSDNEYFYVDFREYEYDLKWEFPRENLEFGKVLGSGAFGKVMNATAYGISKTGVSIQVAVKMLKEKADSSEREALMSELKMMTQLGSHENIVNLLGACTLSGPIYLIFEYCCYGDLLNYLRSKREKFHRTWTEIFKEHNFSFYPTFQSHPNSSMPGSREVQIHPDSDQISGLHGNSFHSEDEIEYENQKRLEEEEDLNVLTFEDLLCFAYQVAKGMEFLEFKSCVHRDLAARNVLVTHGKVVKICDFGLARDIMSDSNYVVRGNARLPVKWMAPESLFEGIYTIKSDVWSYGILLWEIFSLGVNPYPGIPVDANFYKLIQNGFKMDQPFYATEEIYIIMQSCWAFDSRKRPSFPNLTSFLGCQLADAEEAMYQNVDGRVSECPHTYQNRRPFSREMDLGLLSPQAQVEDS
Method: as §1

BaF3 (FLT3 (ITD-F691L)) = test: Antiproliferative activity in BaF3 cells transformed with FLT3-ITD-F691L; assay type: cell-based; details: Mus musculus, Table S2
FLT3 mutants = test: Hot-Spot kinase profiling, FLT3 mutants together; assay type: biochemical; details: eight FLT3 mutants, bound for all; read-out: IC50 against FLT3 mutants
Method: as §1

MV4-11 cells = test: Cell apoptosis assay (Annexin V-FITC/PI, flow cytometry); assay type: cell-based, human; details: MV4-11, 2 μM, 24 h
Method: The apoptosis of MV4-11 cells was determined by Annexin V-FITC/PI assay. Annexin V binds to phosphatidylserine, which is exposed on the cell membrane and is one of the earliest indicators of cellular apoptosis. PI (Propidium Iodide) is used as a DNA stain for both flow cytometry to evaluate cell viability or DNA content in cell cycle analysis and microscopy to visualize the nucleus and other DNA containing organelles. It can be used to differentiate necrotic, apoptotic, and normal cells. Cells (2 × 10^5) were seeded in 6-well plate and were treated with varying concentrations of inhibitor for 24 h. MV4-11 cells were collected and incubated with FITC-conjugated Annexin V (Nanjing keyGen Biotech Company, Nanjing, China). The nuclei were then counterstained with PI. After the dual staining, the cells were screened by a FAC Scan flow cytometer (FACS Calibun, Becton Dickinson, Nanjing, China). The upper left corner of the quadrant represents debris, lower left are live cells, upper right are advanced apoptotic or necrotic cells and lower right are apoptotic cells.

[3] = system: human cell lines of NCI60; test: NCI60 screening, overall; assay type: cell-based; details: for most cell lines
From the text: With these findings, we submitted compound 8t to National Cancer Institute (NCI) to evaluate their antitumor efficacy against 60 human cancer cell lines.

T2 sequence (P11802 whole entry): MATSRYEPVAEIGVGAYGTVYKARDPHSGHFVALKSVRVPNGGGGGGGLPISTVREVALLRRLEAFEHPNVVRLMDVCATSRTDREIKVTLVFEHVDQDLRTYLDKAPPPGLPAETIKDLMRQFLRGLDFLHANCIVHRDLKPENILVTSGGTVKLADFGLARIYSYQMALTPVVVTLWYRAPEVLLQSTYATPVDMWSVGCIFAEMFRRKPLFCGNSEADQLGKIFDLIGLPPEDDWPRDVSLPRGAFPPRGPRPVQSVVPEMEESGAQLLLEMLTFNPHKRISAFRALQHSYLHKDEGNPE
T2 sequence (P24385 whole entry partner): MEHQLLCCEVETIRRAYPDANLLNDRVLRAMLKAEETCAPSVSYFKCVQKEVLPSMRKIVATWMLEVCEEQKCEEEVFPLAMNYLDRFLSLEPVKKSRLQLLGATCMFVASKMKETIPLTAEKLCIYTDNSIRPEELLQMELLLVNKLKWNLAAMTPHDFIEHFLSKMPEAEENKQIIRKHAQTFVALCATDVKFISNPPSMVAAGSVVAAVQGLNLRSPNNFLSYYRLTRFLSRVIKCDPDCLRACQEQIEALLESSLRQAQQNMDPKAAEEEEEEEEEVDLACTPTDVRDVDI

IC50 (CDK2): 0.719 ± 0.064 nM | IC50 (MV4-11): 1.22 ± 0.06 nM | IC50 (CDK4): 0.77 ± 0.007 nM | melting point: 266 to 268 °C | IC50 (FLT3): 0.089 ± 0.013 nM | IC50 (BaF3 (FLT3 (ITD-F691L))): 21.9 nM | IC50 (FLT3 mutants): < 5 nM
Structure (SMILES): O=C(Nc1ccc(N2CCNCC2)cc1)c1n[nH]cc1Nc1ncnc2sc3c(c12)CCC3 [Compound 8t]
phosphorylation of the retinoblastoma protein (Rb) [1]: inhibited | phosphorylation of STAT5/AKT/ERK [2]: completely blocked | apoptosis rate (MV4-11 cells): 51.36% | GI50 [3]: < 1000 nM
